Source: patent US5527820A, “Antibiotics having immunosuppressive activity, delaminomycins and processes for the production of the same” (priority 1992, dated 1996)
≈ marks a conversion by molar mass, not a printed value.

Legend:
[1] = test system: spleen cells (T cells activated by Concanavalin A); assay: Inhibitory activity against blastogenesis and proliferation of spleen cells caused by mitogen (Con A); format: cell-based, mouse (CDF1); conditions: for IC50: read-out: IC50 (inhibition of blastogenesis and proliferation of spleen lymphocyte caused by Con A); for activity inhibitory to the reaction of proliferation of mouse spleen cells activated with Concanavalin A: in vitro, result in words
[2] = test system: nylon wool-passed cells of spleen cells (responder cell; T cells); assay: Inhibitory activity to the mixed lymphocyte culture reaction; format: cell-based, rat (Fischer F344 responder; WKY stimulator); conditions: for IC50: 120 hours, 3H-thymidine incorporation, read-out: IC50 (inhibition of mixed lymphocyte culture reaction); for activity to inhibit the proliferation of the T cells (responder cell) in mixed lymphocyte culture reaction: in vitro, result in words
[3] = test system: delayed-type hypersensitivity (DTH); assay: Suppressive effect on delayed-type hypersensitivity (DTH) in mouse, intraperitoneal; format: in vivo, mouse (CDF1); conditions: intraperitoneal once a day, 0-4th day
Description: Suppressive effect of delaminomycins on delayed-type hypersensitivity (DTH) in mouse
CDF1 mice were immunized by intravenously injecting sheep red blood cells (10^5 cells/mouse). On the 4th day after the immunization, sheep red blood cells (10^8 cells/mouse) were subcutaneously injected into the footpad of mice for the elicitation to cause a delayed-type hypersensitivity (DTH). Test compound was intraperitoneally administered to the mice once a day from the 0th day to 4th day after the immunization. On the 5th day after the elicitation the thickness of the mouse footpad was measured to estimate the suppressive effect of the test compound on the DTH response. The suppressive effect of the test compound was evaluated in terms of the inhibition rate (%) as calculated according to the following equation:
(§1) Inhibition rate (%)=100-(T/C×100)
wherein T denotes the thickness of the footpad when administering the test compound, but C denotes the thickness of the footpad when administering no test compound.

Mouse leukemia L-1210 = assay: Inhibitory activity on proliferation of cancer cells; format: cell-based; conditions: L1210
Mouse leukemia P388D1 = assay: as above; format: cell-based
Mouse leukemia EL-4 = assay: as above; format: cell-based; conditions: EL4
Mouse melanoma B-16 = assay: as above; format: cell-based; conditions: B16
Human Lymphoma Jurkat = assay: as above; format: cell-based
Candida tropicalis F-1 = assay: MIC, agar plate dilution method; format: cell-based; conditions: F1, 27° C., 42 hours, nutrient agar containing glucose
[4] = test system: Candida pseudotropicalis F-2; assay: MIC, agar plate dilution method; format: cell-based; conditions: Kluyveromyces marxianus, F2; 27° C., 42 hours, nutrient agar containing glucose
Candida albicans 3147 = assay: MIC, agar plate dilution method; format: cell-based; conditions: 27° C., 42 hours, nutrient agar containing glucose
Candida Yu-1200 = assay: MIC, agar plate dilution method; format: cell-based; conditions: YU1200, 27° C., 42 hours, nutrient agar containing glucose
Candida krusei F-5 = assay: MIC, agar plate dilution method; format: cell-based; conditions: Pichia kudriavzevii, F5; 27° C., 42 hours, nutrient agar containing glucose
[5] = test system: Saccharomyces cerevisiae F-7; assay: MIC, agar plate dilution method; format: cell-based; conditions: F7, 27° C., 42 hours, nutrient agar containing glucose
[6] = test system: Cryptococcus neoformans F-10; assay: MIC, agar plate dilution method; format: cell-based; conditions: F10, 27° C., 42 hours, nutrient agar containing glucose
Cochliobolus miyabeanus = assay: MIC, agar plate dilution method; format: cell-based; conditions: Bipolaris oryzae; 27° C., 42 hours, nutrient agar containing glucose
Description: (§2) Delaminomycins A, B, C, A2, B2 and C2 according to this invention further have an antibacterial activity against a variety of bacteria. The minimum growth inhibitory concentrations (MIC) (μg/ml) of the novel antibiotics of this invention on various bacteria and fungi as measured by the agar plate dilution method are shown in Table 5a, Table 5b, Table 5c and Table 5d below.
(§3) Evaluated after culturing at 27° C. for 42 hours in nutrient agar
(§4) medium containing glucose.

Xanthomonas citri = assay: MIC, agar plate dilution method; format: cell-based; conditions: 27° C., 42 hours, nutrient agar containing glucose
Description: as §2, §3, §4

Piricularia oryzae = assay: microbe, parasite or virus in culture; format: cell-based; conditions: 42 h
Pellicularia sasakii = assay: MIC, agar plate dilution method; format: cell-based; conditions: 27° C., 42 hours, nutrient agar containing glucose
Aspergillus niger F-16 = assay: MIC, agar plate dilution method; format: cell-based; conditions: F16, 27° C., 42 hours, nutrient agar containing glucose
[7] = test system: Trichophyton asteroides 429; assay: MIC, agar plate dilution method; format: cell-based; conditions: 27° C., 42 hours, nutrient agar containing glucose
[8] = test system: Trichophyton mentagrophytes F-15 (833); assay: MIC, agar plate dilution method; format: cell-based; conditions: 27° C., 42 hours, nutrient agar containing glucose
[9] = Acute toxicity (LD50) in ICR mice; conditions: mouse, in vivo, ip, intraperitoneally
Gram-positive bacteria = assay: Antibacterial activity to Gram-positive bacteria; format: cell-based; conditions: result in words
Description: as §2

Solubility = conditions: result in words; for Solubility: various solvents
[10] = Absorption into the digestive tracts on oral administration; conditions: result in words
[11] = test system: delayed-type hypersensitivity (DTH); assay: Suppressive effect on delayed-type hypersensitivity (DTH) in mouse, oral; format: in vivo, mouse (CDF1); conditions: 2.0 mg/mouse, oral once a day, 0~4th day
Description: CDF1 mice were immunized by intravenously injecting sheep red blood cells (10^5 cells/mouse). On the 4th day after the immunization, sheep red blood cells (10^8 cells/mouse) were subcutaneously injected into the footpad of mice for the elicitation to cause a delayed-type hypersensitivity. Test compound was orally administered to the mice once a day from the 0 th day to the 4 th day after the immunization. On the 5th day after the elicitation, the thickness of the mouse footpad was measured to estimate the suppressive effect of the test compound on DTH. The suppressive effect of the test compound was evaluated in terms of the inhibition rate (%) as calculated according to the following equation:
as §1
wherein T denotes the thickness of the footpad when the test compound was administered, but C denotes the thickness of the footpad when no test compounnd was administered.

CCC(O)C(C)/C=C/C=C/C(O)CC1C=CC2CC(C)CC(C)C2C1(C)C(=O)C1C(=O)NC(O)C1=O (stereo not shown) [Delaminomycin A]
IC50 ([1]; Mus musculus, T-cell): 17.5 µg/mL (≈ 34.9 µM) | inhibition at 1.56 µg/mL ([1]; Mus musculus, T-cell, 1.56 μg/ml test compound, read-out: Inhibition rate): 0% | inhibition at 6.25 µg/mL ([1]; Mus musculus, T-cell, 6.25 μg/ml test compound, read-out: Inhibition rate): 31% | inhibition at 25 µg/mL ([1]; Mus musculus, T-cell, 25 μg/ml test compound, read-out: Inhibition rate): 57% | inhibition at 100 µg/mL ([1]; Mus musculus, T-cell, 100 μg/ml test compound, read-out: Inhibition rate): 88% | activity inhibitory to the reaction of proliferation of mouse spleen cells activated with Concanavalin A [1]: exhibit an activity inhibitory to the reaction of proliferation of mouse spleen cells | inhibition at 0.1 µg/mL ([2]; Rattus norvegicus, T-cell, 0.10 μg/ml test compound, read-out: Inhibition rate): 17.6% | inhibition at 0.39 µg/mL ([2]; Rattus norvegicus, T-cell, 0.39 μg/ml test compound, read-out: Inhibition rate): 32.8% | inhibition at 1.56 µg/mL ([2]; Rattus norvegicus, T-cell, 1.56 μg/ml test compound, read-out: Inhibition rate): 17.5% | inhibition at 6.25 µg/mL ([2]; Rattus norvegicus, T-cell, 6.25 μg/ml test compound, read-out: Inhibition rate): 55.3% | inhibition at 25 µg/mL ([2]; Rattus norvegicus, T-cell, 25 μg/ml test compound, read-out: Inhibition rate): 95% | inhibition at 100 µg/mL ([2]; Rattus norvegicus, T-cell, 100 μg/ml test compound, read-out: Inhibition rate): 96.4% | IC50 ([2]; Rattus norvegicus, T-cell): 8.6 µg/mL (≈ 17.1 µM) | activity to inhibit the proliferation of the T cells (responder cell) in mixed lymphocyte culture reaction [2]: have an activity to inhibit the reaction of proliferation of the T cells | Inhibition rate (DTH footpad thickness) ([3]; 15.6 μg/mouse): 0.1% | Inhibition rate (DTH footpad thickness) ([3]; 62.5 μg/mouse): 52.8% | Inhibition rate (DTH footpad thickness) ([3]; 250 μg/mouse): 85.3% | Inhibition rate (DTH footpad thickness) ([3]; 1000 μg/mouse): 99.2% | IC50 (Mouse leukemia L-1210): > 100 µg/mL | IC50 (Mouse leukemia P388D1): 14 µg/mL (≈ 27.9 µM) | IC50 (Mouse leukemia EL-4): 17.9 µg/mL (≈ 35.7 µM) | IC50 (Mouse melanoma B-16): 21.1 µg/mL (≈ 42.1 µM) | IC50 (Human Lymphoma Jurkat): 3.6 µg/mL (≈ 7.18 µM) | MIC (Candida tropicalis F-1): > 100 µg/mL | MIC [4]: > 100 µg/mL | MIC (Candida albicans 3147): > 100 µg/mL | MIC (Candida Yu-1200): > 100 µg/mL | MIC (Candida krusei F-5): > 100 µg/mL | MIC [5]: > 100 µg/mL | MIC [6]: > 100 µg/mL | MIC (Cochliobolus miyabeanus): > 100 µg/mL | MIC (Xanthomonas citri): > 100 µg/mL | MIC (Piricularia oryzae): > 100 µg/mL | MIC (Pellicularia sasakii): > 100 µg/mL | MIC (Aspergillus niger F-16): > 100 µg/mL | MIC [7]: > 100 µg/mL | MIC [8]: > 100 µg/mL | LD50 [9]: > 500 mg/kg | antibacterial activity to Gram-positive bacteria (Gram-positive bacteria): antibacterial activity to Gram-positive bacteria | Solubility (Solubility): soluble in methanol but slightly soluble or insoluble in water, acetone, ethyl ether and n-hexane | Solubility in water (Solubility): barely soluble in water | absorption into the digestive tracts / oral absorption [10]: hardly absorbed into the digestive tracts

CCC(O)C(C)/C=C/C=C/C1CC2C=CC3CC(C)CC(C)C3C2(C)C(=O)C12C(=O)NC(OC)C2=O (stereo not shown) [Delaminomycin B2]
IC50 ([1]; Mus musculus, T-cell): 0.85 µg/mL (≈ 1.71 µM) | inhibition at 0.2 µg/mL ([1]; Mus musculus, T-cell, 0.20 μg/ml test compound, read-out: Inhibition rate): 12.3% | inhibition at 0.78 µg/mL ([1]; Mus musculus, T-cell, 0.78 μg/ml test compound, read-out: Inhibition rate): 47.6% | inhibition at 3.1 µg/mL ([1]; Mus musculus, T-cell, 3.1 μg/ml test compound, read-out: Inhibition rate): 92.7% | inhibition at 12.5 µg/mL ([1]; Mus musculus, T-cell, 12.5 μg/ml test compound, read-out: Inhibition rate): 94.1% | inhibition at 50 µg/mL ([1]; Mus musculus, T-cell, 50 μg/ml test compound, read-out: Inhibition rate): 96.7% | activity inhibitory to the reaction of proliferation of mouse spleen cells activated with Concanavalin A [1]: exhibit an activity inhibitory to the reaction of proliferation of mouse spleen cells | inhibition at 0.05 µg/mL ([2]; Rattus norvegicus, T-cell, 0.05 μg/ml test compound, read-out: Inhibition rate): 0% | inhibition at 0.2 µg/mL ([2]; Rattus norvegicus, T-cell, 0.20 μg/ml test compound, read-out: Inhibition rate): 12.3% | inhibition at 0.78 µg/mL ([2]; Rattus norvegicus, T-cell, 0.78 μg/ml test compound, read-out: Inhibition rate): 47.6% | inhibition at 3.1 µg/mL ([2]; Rattus norvegicus, T-cell, 3.1 μg/ml test compound, read-out: Inhibition rate): 92.7% | inhibition at 12.5 µg/mL ([2]; Rattus norvegicus, T-cell, 12.5 μg/ml test compound, read-out: Inhibition rate): 94.1% | inhibition at 50 µg/mL ([2]; Rattus norvegicus, T-cell, 50 μg/ml test compound, read-out: Inhibition rate): 96.7% | IC50 ([2]; Rattus norvegicus, T-cell): 8.6 µg/mL (≈ 17.3 µM) | activity to inhibit the proliferation of the T cells (responder cell) in mixed lymphocyte culture reaction [2]: have an activity to inhibit the reaction of proliferation of the T cells | Inhibition rate (DTH footpad thickness) ([3]; 15.6 μg/mouse): -3.3% | Inhibition rate (DTH footpad thickness) ([3]; 62.5 μg/mouse): 35.4% | Inhibition rate (DTH footpad thickness) ([3]; 250 μg/mouse): 36.2% | Inhibition rate (DTH footpad thickness) ([3]; 1000 μg/mouse): 51.3% | Inhibition rate (DTH footpad thickness) [11]: 18.4% | IC50 (Mouse leukemia L-1210): 8 µg/mL (≈ 16.1 µM) | IC50 (Mouse leukemia P388D1): 12.1 µg/mL (≈ 24.3 µM) | IC50 (Mouse leukemia EL-4): 6.8 µg/mL (≈ 13.7 µM) | IC50 (Mouse melanoma B-16): 17.9 µg/mL (≈ 36 µM) | IC50 (Human Lymphoma Jurkat): 11.4 µg/mL (≈ 22.9 µM) | MIC (Candida tropicalis F-1): > 100 µg/mL | MIC [4]: > 100 µg/mL | MIC (Candida albicans 3147): > 100 µg/mL | MIC (Candida Yu-1200): > 100 µg/mL | MIC (Candida krusei F-5): > 100 µg/mL | MIC [5]: > 100 µg/mL | MIC [6]: > 100 µg/mL | MIC (Cochliobolus miyabeanus): > 100 µg/mL | MIC (Xanthomonas citri): > 100 µg/mL | MIC (Piricularia oryzae): > 100 µg/mL | MIC (Pellicularia sasakii): > 50 µg/mL | MIC (Aspergillus niger F-16): > 100 µg/mL | MIC [7]: > 100 µg/mL | MIC [8]: > 100 µg/mL | antibacterial activity to Gram-positive bacteria (Gram-positive bacteria): antibacterial activity to Gram-positive bacteria | Solubility (Solubility): soluble in methanol, ethyl acetate, chloroform and ethyl ether but slightly soluble or insoluble in n-hexane and water | Solubility in water (Solubility): barely soluble in water | absorption into the digestive tracts / oral absorption [10]: hardly absorbed into the digestive tracts
